Counter-ions that a name gives are not always drawn. Like-named read-outs stand apart in the source and are kept apart here.
Key:
ROCK1 = ROCK1 (Homo sapiens (Human), UniProt Q13464); experiment: Z-lyte FRET assay to measure kinase inhibition, ROCK1; format: biochemical; conditions: for inhibition at 50 µM: read-out: ROCK1 % inhibition @ 50 μM, 50 μM compound; for IC50: read-out: ROCK1 IC50
ROCK2 = ROCK2 (Homo sapiens (Human), UniProt O75116); experiment: Z-lyte FRET assay to measure kinase inhibition, ROCK2; format: biochemical
Sequence of ROCK2 (O75116 whole entry, species assumed): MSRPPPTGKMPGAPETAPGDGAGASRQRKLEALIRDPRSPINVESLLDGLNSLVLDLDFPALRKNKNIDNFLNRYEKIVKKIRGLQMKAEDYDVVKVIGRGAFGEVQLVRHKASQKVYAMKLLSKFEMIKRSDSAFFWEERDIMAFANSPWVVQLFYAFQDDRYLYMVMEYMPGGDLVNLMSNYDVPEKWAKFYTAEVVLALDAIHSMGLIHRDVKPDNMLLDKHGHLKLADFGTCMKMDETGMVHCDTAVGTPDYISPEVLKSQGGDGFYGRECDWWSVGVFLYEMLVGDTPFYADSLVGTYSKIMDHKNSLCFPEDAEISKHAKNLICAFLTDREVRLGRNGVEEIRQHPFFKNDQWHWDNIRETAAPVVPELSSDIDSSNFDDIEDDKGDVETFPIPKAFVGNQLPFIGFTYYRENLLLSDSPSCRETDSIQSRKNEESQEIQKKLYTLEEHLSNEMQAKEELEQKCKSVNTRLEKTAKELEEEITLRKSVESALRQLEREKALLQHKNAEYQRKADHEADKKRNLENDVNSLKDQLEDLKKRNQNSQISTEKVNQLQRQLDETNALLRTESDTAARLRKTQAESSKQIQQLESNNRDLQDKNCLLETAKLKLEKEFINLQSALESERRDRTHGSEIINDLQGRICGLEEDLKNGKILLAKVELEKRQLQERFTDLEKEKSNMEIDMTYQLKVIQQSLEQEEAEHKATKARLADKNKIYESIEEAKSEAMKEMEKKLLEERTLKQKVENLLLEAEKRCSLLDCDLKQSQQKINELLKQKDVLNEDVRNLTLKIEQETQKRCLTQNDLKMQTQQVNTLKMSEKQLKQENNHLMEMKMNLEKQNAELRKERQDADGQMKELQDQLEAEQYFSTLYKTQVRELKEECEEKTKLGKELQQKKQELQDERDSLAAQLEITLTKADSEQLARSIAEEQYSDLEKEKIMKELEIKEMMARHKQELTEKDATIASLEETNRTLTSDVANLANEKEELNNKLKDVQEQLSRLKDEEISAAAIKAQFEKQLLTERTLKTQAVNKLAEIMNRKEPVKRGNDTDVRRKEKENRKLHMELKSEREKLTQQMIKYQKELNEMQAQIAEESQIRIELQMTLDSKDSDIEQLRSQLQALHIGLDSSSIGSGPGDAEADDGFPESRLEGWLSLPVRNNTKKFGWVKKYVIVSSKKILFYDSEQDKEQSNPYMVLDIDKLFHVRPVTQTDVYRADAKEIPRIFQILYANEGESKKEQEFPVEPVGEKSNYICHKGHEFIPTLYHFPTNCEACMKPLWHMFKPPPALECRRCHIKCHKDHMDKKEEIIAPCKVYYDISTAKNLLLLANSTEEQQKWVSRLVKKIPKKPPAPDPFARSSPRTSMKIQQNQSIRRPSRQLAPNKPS

Sequence of ROCK1 (Q13464 whole entry): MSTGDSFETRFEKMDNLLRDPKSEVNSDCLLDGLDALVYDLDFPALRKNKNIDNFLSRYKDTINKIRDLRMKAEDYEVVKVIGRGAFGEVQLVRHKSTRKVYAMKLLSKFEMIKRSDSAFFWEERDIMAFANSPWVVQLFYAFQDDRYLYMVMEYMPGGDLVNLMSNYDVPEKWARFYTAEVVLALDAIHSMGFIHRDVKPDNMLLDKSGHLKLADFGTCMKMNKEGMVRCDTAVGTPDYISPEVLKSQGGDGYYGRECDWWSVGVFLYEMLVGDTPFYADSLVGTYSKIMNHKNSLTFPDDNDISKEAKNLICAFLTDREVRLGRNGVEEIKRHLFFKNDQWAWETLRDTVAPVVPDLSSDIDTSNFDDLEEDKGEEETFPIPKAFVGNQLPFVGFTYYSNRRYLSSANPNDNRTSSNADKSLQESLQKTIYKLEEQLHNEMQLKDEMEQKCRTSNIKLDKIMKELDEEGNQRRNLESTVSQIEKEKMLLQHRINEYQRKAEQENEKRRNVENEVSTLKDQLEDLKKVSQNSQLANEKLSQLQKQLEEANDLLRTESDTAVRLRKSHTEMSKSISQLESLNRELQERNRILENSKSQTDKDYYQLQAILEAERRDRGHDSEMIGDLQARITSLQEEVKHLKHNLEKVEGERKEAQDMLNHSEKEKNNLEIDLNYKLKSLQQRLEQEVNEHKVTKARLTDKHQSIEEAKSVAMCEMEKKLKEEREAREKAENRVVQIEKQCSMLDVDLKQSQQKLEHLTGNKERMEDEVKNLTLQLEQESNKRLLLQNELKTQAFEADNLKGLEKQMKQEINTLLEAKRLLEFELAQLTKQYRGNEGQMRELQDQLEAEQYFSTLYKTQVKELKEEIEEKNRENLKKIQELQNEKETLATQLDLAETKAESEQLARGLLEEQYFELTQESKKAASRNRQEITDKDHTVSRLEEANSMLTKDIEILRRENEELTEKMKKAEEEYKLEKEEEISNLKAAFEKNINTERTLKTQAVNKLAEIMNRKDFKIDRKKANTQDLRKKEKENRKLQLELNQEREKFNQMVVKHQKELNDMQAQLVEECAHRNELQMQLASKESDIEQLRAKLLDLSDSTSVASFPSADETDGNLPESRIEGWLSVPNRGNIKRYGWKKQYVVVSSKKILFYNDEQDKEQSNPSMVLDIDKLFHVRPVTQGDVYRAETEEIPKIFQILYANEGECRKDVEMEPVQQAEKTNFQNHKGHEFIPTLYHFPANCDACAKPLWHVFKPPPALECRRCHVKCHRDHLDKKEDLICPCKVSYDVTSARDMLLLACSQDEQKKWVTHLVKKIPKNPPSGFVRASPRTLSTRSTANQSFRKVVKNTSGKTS

## CS(=O)(=O)c1ccc2c(c1)CCN2c1ccnc(N)n1
ROCK1
  inhibition at 50 µM: 49 ± 4%
  IC50: 41 ± 2.3 µM
ROCK2
  IC50: 37.9 ± 2 µM

## COc1ccc2c(ccn2-c2ccnc(N)n2)c1
ROCK1
  inhibition at 50 µM: 96 ± 3%
  IC50: 0.4 ± 0.1 µM
ROCK2
  IC50: 0.25 ± 0.13 µM

## NC(=O)c1ccc(Nc2ccnc(N)n2)cc1
ROCK1
  inhibition at 50 µM: 82 ± 2%
  IC50: 13.3 ± 1.7 µM
ROCK2
  IC50: 11.5 ± 1.2 µM

## COc1ccc2c(c1)c(CCNC(C)=O)cn2-c1ccnc(N)n1
ROCK1
  inhibition at 50 µM: 89 ± 1%
  IC50: 4.9 ± 0.8 µM
ROCK2
  IC50: 5.3 ± 1.2 µM

## NC(=O)c1cccc(Nc2ccnc(N)n2)c1
ROCK1
  inhibition at 50 µM: 54 ± 4%
  IC50: 38.9 ± 0.9 µM
ROCK2
  IC50: 33.3 ± 2.8 µM

## Nc1nccc(N2CCc3cc(S(N)(=O)=O)ccc32)n1
ROCK1
  inhibition at 50 µM: 73 ± 4%
  IC50: 25.8 ± 2.6 µM
ROCK2
  IC50: 10.3 ± 0.9 µM

## Nc1nccc(-n2ccc3c(OCc4cccc(Cl)c4)cccc32)n1
ROCK1
  inhibition at 50 µM: 44 ± 9%
  IC50: 34.6 ± 8.2 µM
ROCK2
  IC50: 32.7 ± 8.1 µM

## Nc1nccc(-n2ccc3cc(OCc4ccccc4)ccc32)n1
ROCK1
  inhibition at 50 µM: 76 ± 2%
  IC50: 39 ± 6.9 µM
ROCK2
  IC50: 16.3 ± 5.5 µM

## COc1cccc(CNC(=O)c2cccc3c2CCN3c2ccnc(N)n2)c1
ROCK1
  inhibition at 50 µM: 92.8 ± 3.64%
  IC50: 1.62 ± 0.86 µM
ROCK2
  IC50: 0.25 ± 0.02 µM

## Nc1nccc(-n2ccc3c(OCc4ccccc4)cccc32)n1
ROCK1
  inhibition at 50 µM: 80 ± 3%
  IC50: 0.8 ± 0.5 µM
ROCK2
  IC50: 0.4 ± 0.1 µM

## Nc1nccc(N2CCCc3ccccc32)n1
ROCK1
  inhibition at 50 µM: 69 ± 1%
  IC50: 19.8 ± 4.3 µM
ROCK2
  IC50: 35.3 ± 5.1 µM

## Nc1nccc(Nc2ccc(OC(F)F)cc2)n1
ROCK1
  inhibition at 50 µM: 64 ± 7%
  IC50: 30 ± 3.2 µM
ROCK2
  IC50: 23.4 ± 5.5 µM

## COc1ccccc1CNC(=O)c1cccc2c1ccn2-c1ccnc(N)n1
ROCK1
  inhibition at 50 µM: 69 ± 3%
  IC50: 6 ± 2 µM
ROCK2
  IC50: 1.8 ± 0.68 µM

## Nc1nccc(-n2cnc3ccccc32)n1
ROCK1
  inhibition at 50 µM: 50 ± 1%
  IC50: 38.7 ± 1.6 µM
ROCK2
  IC50: 37.4 ± 4 µM

## Nc1nccc(-n2ccc3c(C(=O)NCCc4ccccc4)cccc32)n1
ROCK1
  inhibition at 50 µM: 91 ± 1%
  IC50: 2 ± 0.5 µM
ROCK2
  IC50: 0.5 ± 0.1 µM

## Nc1nccc(-n2ccc3c(C(=O)NCc4ccccc4F)cccc32)n1
ROCK1
  inhibition at 50 µM: 88.7 ± 5.96%
  IC50: 5.67 ± 0.32 µM
ROCK2
  IC50: 0.92 ± 0.48 µM

## CC(NC(=O)c1cccc2c1ccn2-c1ccnc(N)n1)c1ccccc1 (centres unmarked) [drawing 177]
ROCK1
  inhibition at 50 µM: 85 ± 6%
  IC50: 1.7 ± 0.5 µM
ROCK2
  IC50: 0.21 ± 0.15 µM

## Nc1nccc(Nc2cccc(S(N)(=O)=O)c2)n1
ROCK1
  inhibition at 50 µM: 90 ± 2%
  IC50: 6.1 ± 0.6 µM
ROCK2
  IC50: 6.1 ± 1.1 µM

## Nc1nccc(N2CCc3ccccc32)n1
ROCK1
  inhibition at 50 µM: 85 ± 4%
  IC50: 6.6 ± 0.5 µM
ROCK2
  IC50: 3.4 ± 0.3 µM

## CC1Cc2cc([N+](=O)[O-])ccc2N1c1ccnc(N)n1 (centres unmarked)
ROCK1
  inhibition at 50 µM: 98 ± 2%
  IC50: 0.5 ± 0.1 µM
ROCK2
  IC50: 0.4 ± 0.1 µM

## COC(=O)c1ccc(Nc2ccnc(N)n2)cc1
ROCK1
  inhibition at 50 µM: 77 ± 3%
  IC50: 20.5 ± 8 µM
ROCK2
  IC50: 13.9 ± 1.7 µM

## Nc1nccc(Nc2ccc([N+](=O)[O-])cc2)n1
ROCK1
  inhibition at 50 µM: 89 ± 2%
  IC50: 3.9 ± 0.3 µM
ROCK2
  IC50: 3.7 ± 0.8 µM

## CC1CN(c2ccnc(N)n2)c2ccccc21 (centres unmarked)
ROCK1
  inhibition at 50 µM: 93 ± 2%
  IC50: 4.8 ± 0.5 µM
ROCK2
  IC50: 2.6 ± 0.1 µM

## Nc1nccc(-n2ccc3c(C(=O)NCc4ccccc4)cccc32)n1
ROCK1
  inhibition at 50 µM: 92 ± 1%
  IC50: 1 ± 0.5 µM
ROCK2
  IC50: 0.2 ± 0.1 µM

## COc1cccc(Nc2ccnc(N)n2)c1
ROCK1
  inhibition at 50 µM: 63 ± 5%
  IC50: 30.2 ± 2.5 µM
ROCK2
  IC50: 42.5 ± 6.7 µM

## CSc1ccc(Nc2ccnc(N)n2)cc1
ROCK1
  inhibition at 50 µM: 76 ± 2%
  IC50: 21 ± 8.8 µM
ROCK2
  IC50: 17.1 ± 2.8 µM

## COC(=O)c1cccc(Nc2ccnc(N)n2)c1
ROCK1
  inhibition at 50 µM: 63 ± 5%
  IC50: 37 ± 8.8 µM
ROCK2
  IC50: 39.6 ± 6.2 µM

## Nc1nccc(-n2ccc3c(C(=O)NCc4cccc(F)c4)cccc32)n1
ROCK1
  inhibition at 50 µM: 72 ± 10%
  IC50: 2.7 ± 1.78 µM
ROCK2
  IC50: 0.26 ± 0.09 µM

## Nc1nccc(Nc2ccc(S(N)(=O)=O)cc2)n1 [1aa, 4-(2-Aminopyrimidin-4-ylamino)benzenesulfonamide hydrochloride]
ROCK1; hydrochloride
  IC50: 38 µM
ROCK2; hydrochloride
  IC50: 25 µM

## Nc1nccc(-n2ccc3cc(Br)ccc32)n1
ROCK1
  inhibition at 50 µM: 89 ± 1%
  IC50: 2.1 ± 0.3 µM
ROCK2
  IC50: 1.7 ± 0.3 µM

## Nc1nccc(Nc2ccc(S(N)(=O)=O)cc2)n1 [drawing 83]
ROCK1
  inhibition at 50 µM: 60 ± 3%
  IC50: 38.5 ± 3.4 µM
ROCK2
  IC50: 25.5 ± 5.8 µM
